Among the data in US12583858B2 (Genentech, Inc., priority 2015, dated 2026) are EC50 values, retold here.

Usually EC50 stands for the concentration needed to bring the measured effect to its halfway point.

T1 sequence (P48775 whole entry): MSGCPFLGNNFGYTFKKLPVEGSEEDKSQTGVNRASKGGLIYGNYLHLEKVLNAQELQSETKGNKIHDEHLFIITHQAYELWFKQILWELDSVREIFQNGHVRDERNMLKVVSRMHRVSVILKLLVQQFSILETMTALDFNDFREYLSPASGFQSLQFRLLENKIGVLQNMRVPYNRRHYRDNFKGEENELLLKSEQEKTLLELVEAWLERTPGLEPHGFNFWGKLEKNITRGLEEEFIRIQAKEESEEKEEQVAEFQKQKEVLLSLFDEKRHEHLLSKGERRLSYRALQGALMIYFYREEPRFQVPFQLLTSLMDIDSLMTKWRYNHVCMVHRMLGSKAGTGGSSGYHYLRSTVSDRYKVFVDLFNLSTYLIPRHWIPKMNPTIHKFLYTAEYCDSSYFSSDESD

This experiment addresses T1, TDO2 (Homo sapiens, UniProt P48775).
T1 construct: decreased levels of NFK in SW48 cells (high TDO expressing cells)
Nature of the experiment: TDO2 cell assay (NFK GreenScreen, SW48 cells). The class given is cell-based. As to conditions: SW48 cells (high TDO expressing), 200 uM tryptophan, 24 hours; Table 3; read-out: TDO2 Cell Fluor EC50.
With `NC(=O)c1ccc2c(n1)CCC(C1c3ccccc3-c3cncn31)C2O` (single isomer, unassigned) [Example 104c], the EC50 amounted to 23 µM. As for `NC(=O)c1ccc2c(n1)CCC(C1c3ccccc3-c3cncn31)C2O` (single isomer, unassigned) [Example 104d], the figure is 14 µM; as for `NC(=O)c1ccc2c(n1)CCC(C1c3ccccc3-c3cncn31)C2O` (single isomer, unassigned) [Example 104e], 3.4 µM; as for `NC(=O)c1ccc2c(n1)CCC(C1c3ccccc3-c3cncn31)C2O` (single isomer, unassigned) [Example 104f], 8.6 µM.

Consider `NC(=O)c1ccc2c(n1)CCC(C1c3ccccc3-c3cncn31)C2O` (single isomer, unassigned) [Example 104g], for which the EC50 amounted to 0.33 µM. As for `NC(=O)c1ccc2c(n1)CCC(C1c3ccccc3-c3cncn31)C2O` (single isomer, unassigned) [Example 104h], the figure is 20 µM. As for `NS(=O)(=O)c1ccc2c(c1)C(O)C(C1c3ccccc3-c3cncn31)CC2` (single isomer, unassigned) [Example 105a], the figure is 12 µM; as for `NS(=O)(=O)c1ccc2c(c1)C(O)C(C1c3ccccc3-c3cncn31)CC2` (single isomer, unassigned) [Example 105b], 8.6 µM. Turning to `NS(=O)(=O)c1ccc2c(c1)C(O)C(C1c3ccccc3-c3cncn31)CC2` (single isomer, unassigned) [Example 105c], the half-maximal effective concentration (EC50) was 0.077 µM. As for `NS(=O)(=O)c1ccc2c(c1)C(O)C(C1c3ccccc3-c3cncn31)CC2` (single isomer, unassigned) [Example 105d], the figure is 0.044 µM; as for `NS(=O)(=O)c1ccc2c(c1)C(O)C(C1c3ccccc3-c3cncn31)CC2` (single isomer, unassigned) [Example 105e], 0.46 µM. In the case of `NS(=O)(=O)c1ccc2c(c1)C(O)C(C1c3ccccc3-c3cncn31)CC2` (single isomer, unassigned) [Example 105f] it was 16 µM; in that of `NS(=O)(=O)c1ccc2c(c1)C(O)C(C1c3ccccc3-c3cncn31)CC2` (single isomer, unassigned) [Example 105g], 9.2 µM; in that of `NS(=O)(=O)c1ccc2c(c1)C(O)C(C1c3ccccc3-c3cncn31)CC2` (single isomer, unassigned) [Example 105h], 0.51 µM. As for `O[C@@H]1[C@@H]([C@@H]2c3ccccc3-c3cncn32)CCCC1(F)F` (single isomer, unassigned) [Example 106a], the figure is over 25 µM; as for `O[C@H]1[C@H]([C@H]2c3ccccc3-c3cncn32)CCCC1(F)F` (single isomer, unassigned) [Example 106b], 0.17 µM; as for `O[C@H]1[C@H]([C@@H]2c3ccccc3-c3cncn32)CCCC1(F)F` (single isomer, unassigned) [Example 106c], 8.1 µM. For the molecule `O[C@@H]1[C@@H]([C@H]2c3ccccc3-c3cncn32)CCCC1(F)F` (single isomer, unassigned) [Example 106d], the EC50 amounted to 0.93 µM. Turning to `N#Cc1cnc2c(c1)CCC(C1c3ccccc3-c3cncn31)C2O` (single isomer, unassigned) [Example 107a], the concentration giving a half-maximal response (EC50) is 17 µM. In the case of `N#Cc1cnc2c(c1)CCC(C1c3ccccc3-c3cncn31)C2O` (single isomer, unassigned) [Example 107b] it was over 25 µM; in that of `N#Cc1cnc2c(c1)CCC(C1c3ccccc3-c3cncn31)C2O` (single isomer, unassigned) [Example 107c], 21 µM; in that of `N#Cc1cnc2c(c1)CCC(C1c3ccccc3-c3cncn31)C2O` (single isomer, unassigned) [Example 107d], 2.4 µM. As for `N#Cc1cnc2c(c1)CCC(C1c3ccccc3-c3cncn31)C2O` (single isomer, unassigned) [Example 107e], the figure is 23 µM; as for `N#Cc1cnc2c(c1)CCC(C1c3ccccc3-c3cncn31)C2O` (single isomer, unassigned) [Example 107f], 0.42 µM; as for `N#Cc1cnc2c(c1)CCC(C1c3ccccc3-c3cncn31)C2O` (single isomer, unassigned) [Example 107g], 0.87 µM. `N#Cc1cnc2c(c1)CC[C@H]([C@@H]1c3ccccc3-c3cncn31)[C@H]2O` (single isomer, unassigned) [Example 107h]: the half-maximal effective concentration (EC50) was determined as 0.16 µM. With `CCS(=O)(=O)N1CC(O)(CC2c3ccccc3-c3cncn32)C1` (single isomer, unassigned) [Example 108a], the EC50 was 2.8 µM.

Turning to `CCS(=O)(=O)N1CC(O)(CC2c3ccccc3-c3cncn32)C1` (single isomer, unassigned) [Example 108b], the EC50 is over 25 µM. In the case of `OC1C(C2c3ccc(F)cc3-c3cncn32)CC12CCOCC2` (single isomer, unassigned) [Example 109a] it was 0.62 µM; in that of `OC1C(C2c3ccc(F)cc3-c3cncn32)CC12CCOCC2` (single isomer, unassigned) [Example 109b], 3.9 µM; in that of `OC1C(C2c3ccc(F)cc3-c3cncn32)CC12CCOCC2` (single isomer, unassigned) [Example 109d], 3.7 µM. In the case of `OC1C(C2c3ccc(F)cc3-c3cncn32)CC12CCOCC2` (single isomer, unassigned) [Example 109e] it was 9.5 µM. In the case of `OC1C(C2c3ccc(F)cc3-c3cncn32)CC12CCOCC2` (single isomer, unassigned) [Example 109f] it was over 25 µM; in that of `OC1C(C2c3ccc(F)cc3-c3cncn32)CC12CCOCC2` (single isomer, unassigned) [Example 109g], 0.15 µM; in that of `OC1C(C2c3ccc(F)cc3-c3cncn32)CC12CCOCC2` (single isomer, unassigned) [Example 109h], over 25 µM. For the molecule `Cc1ccc2c(c1)C(C1COCC1O)n1cncc1-2` (single isomer, unassigned) [Example 110a], the EC50 was determined as 0.52 µM. As for `Cc1ccc2c(c1)C(C1COCC1O)n1cncc1-2` (single isomer, unassigned) [Example 110b], the figure is over 25 µM.

As to `Cc1ccc2c(c1)C(C1COCC1O)n1cncc1-2` (single isomer, unassigned) [Example 110c], the EC50 is 3.9 µM. In the case of `Cc1ccc2c(c1)C(C1COCC1O)n1cncc1-2` (single isomer, unassigned) [Example 110d] it was over 25 µM; in that of `Nc1ncc2c(n1)CCC(C1c3ccccc3-c3cncn31)C2O` (single isomer, unassigned) [Example 111a], 0.54 µM. With `Nc1ncc2c(n1)CCC(C1c3ccccc3-c3cncn31)C2O` (single isomer, unassigned) [Example 111b], the concentration giving a half-maximal response (EC50) turned out to be 0.12 µM. As for `Nc1ncc2c(n1)CCC(C1c3ccccc3-c3cncn31)C2O` (single isomer, unassigned) [Example 111c], the figure is 7.8 µM; as for `Nc1ncc2c(n1)CCC(C1c3ccccc3-c3cncn31)C2O` (single isomer, unassigned) [Example 111d], over 25 µM. In the case of `Nc1ncc2c(n1)CCC(C1c3ccccc3-c3cncn31)C2O` (single isomer, unassigned) [Example 111e] it was 5.7 µM; in that of `Nc1ncc2c(n1)CCC(C1c3ccccc3-c3cncn31)C2O` (single isomer, unassigned) [Example 111f], over 25 µM. In the case of `Nc1ncc2c(n1)CCC(C1c3ccccc3-c3cncn31)C2O` (single isomer, unassigned) [Example 111g] it was over 25 µM. In the case of `OC1c2cnncc2CCC1C1c2ccccc2-c2cncn21` (single isomer, unassigned) [Example 112a], the EC50 is over 25 µM. As for `OC1c2cnncc2CCC1C1c2ccccc2-c2cncn21` (single isomer, unassigned) [Example 112c], the figure is over 25 µM; as for `OC1c2cnncc2CCC1C1c2ccccc2-c2cncn21` (single isomer, unassigned) [Example 112d], 5.6 µM; as for `OC1c2cnncc2CCC1C1c2ccccc2-c2cncn21` (single isomer, unassigned) [Example 112e], over 25 µM. In the case of `OC1c2cnncc2CCC1C1c2ccccc2-c2cncn21` (single isomer, unassigned) [Example 112f] it was 3.8 µM; in that of `OC1c2cnncc2CCC1C1c2ccccc2-c2cncn21` (single isomer, unassigned) [Example 112g], 0.27 µM; in that of `OC1c2cnncc2CCC1C1c2ccccc2-c2cncn21` (single isomer, unassigned) [Example 112h], over 25 µM. In the case of `N#Cc1ccc2c(c1)C(O)C(C1c3ccccc3-c3cncn31)CC2` (single isomer, unassigned) [Example 113b] it was 5 µM. Take `N#Cc1ccc2c(c1)C(O)C(C1c3ccccc3-c3cncn31)CC2` (single isomer, unassigned) [Example 113c]: the concentration for a half-maximal effect (EC50) turned out to be 0.06 µM. As for `N#Cc1ccc2c(c1)C(O)C(C1c3ccccc3-c3cncn31)CC2` (single isomer, unassigned) [Example 113f], the figure is 0.17 µM; as for `N#Cc1ccc2c(c1)C(O)C(C1c3ccccc3-c3cncn31)CC2` (single isomer, unassigned) [Example 113g], 3.3 µM. As for `CCS(=O)(=O)N1CCC2(CC1)CC(C1c3ccccc3-c3cncn31)C2O` (single isomer, unassigned) [Example 114a], the figure is 0.39 µM.

For `CCS(=O)(=O)N1CCC2(CC1)CC(C1c3ccccc3-c3cncn31)C2O` (single isomer, unassigned) [Example 114c], the EC50 was found to be 15 µM. As for `CCS(=O)(=O)N1CCC2(CC1)CC(C1c3ccccc3-c3cncn31)C2O` (single isomer, unassigned) [Example 114d], the figure is 0.22 µM; as for `CCS(=O)(=O)N1CCC2(CC1)CC(C1c3ccccc3-c3cncn31)C2O` (single isomer, unassigned) [Example 114e], 1.2 µM.
